“And” between values parts separate entries of the source, which are not always exact repeats. Equal entries are not always repeated. Inconclusive results and toxic doses are left out. Numbered stars: 1 amine (or outer) side, 2 acyl side, 3 side chain; on linkers, the order of the positions; unused ones are H or OH. Bridge positions count the residues as written; N and C are the ends. Square brackets hold non-standard residues; d marks the D form. Peptide text beside a SMILES is read from it. I, II: the chains in the order shown. Actinocin(9to1) = Cc1c2oc3c(C)ccc(C(=O)[*:1])c3nc-2c(C(=O)[*:2])c(N)c1=O; aThr = C[C@H](O)[C@H](N)C(=O)O; NMeV = CN[C@H](C(=O)O)C(C)C; Sar = CNCC(=O)O

This assay deals with P388 leukemia ip, CD2F1 mice, survival T/C. The assay can be described thus: NCI In Vivo Anticancer Drug Screen. Data for tumor model P388 Leukemia (intraperitoneal) in CD2F1 (CDF1) mice. To be noted: endpoint: median survival time, higher = longer survival. The gist of the method: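 Mice carrying the transplanted tumor received test compound or vehicle. Survival was recorded in each group, and the value is the treated-group measurement divided by that of the vehicle-treated control group.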

Take `Cc1c2oc3c(C)ccc(C(=O)N[C@@H]4C(=O)N[C@H](C(C)C)C(=O)N5CCC[C@H]5C(=O)N(C)CC(=O)N(C)[C@@H](C(C)C)C(=O)O[C@H]4C)c3nc-2c(C(=O)N[C@@H]2C(=O)N[C@H](C(C)C)C(=O)N3CCC[C@H]3C(=O)N(C)CC(=O)N(C)[C@@H](C(C)C)C(=O)O[C@H]2C)c(N)c1=O` (I: [aThr][dV]P[Sar][NMeV] / II: [aThr][dV]P[Sar][NMeV]; ester I:1-I:C, II:1-II:C; linker I:N-II:N via Actinocin(9to1)): the T/C is 236 % of control (dose: 0.05 mg/kg/injection, schedule: Q01DX005 (ip), vehicle: saline + alcohol); 165 % of control (dose: 0.08 mg/kg/injection, schedule: Q04DX003 (ip), vehicle: saline + alcohol); 79 % of control (dose: 0.09 mg/kg/injection, schedule: Q01DX009 (ip), vehicle: water); 181 % of control (dose: 0.1 mg/kg/injection, schedule: Q01DX001 (ip), vehicle: water); 151 % of control (dose: 0.11 mg/kg/injection, schedule: Q04DX003 (ip), vehicle: saline + alcohol); 156 % of control and 180 % of control and 198 % of control (dose: 0.13 mg/kg/injection, schedule: Q04DX002 (ip), vehicle: saline + alcohol). Also, the T/C (dose: 0.13 mg/kg/injection, schedule: Q04DX003 (ip), vehicle: saline + alcohol) was 223 % of control; the T/C (dose: 0.15 mg/kg/injection, schedule: Q04DX003 (ip), vehicle: saline) is 169 % of control; the T/C (dose: 0.16 mg/kg/injection, schedule: Q01DX009 (ip), vehicle: water) is 65 % of control; the T/C (dose: 0.18 mg/kg/injection, schedule: Q04DX003 (ip), vehicle: saline + alcohol) was 163 % of control; the T/C (dose: 0.21 mg/kg/injection, schedule: Q04DX002 (ip), vehicle: saline + alcohol) was 186 % of control; the T/C (dose: 0.22 mg/kg/injection, schedule: Q04DX002 (ip), vehicle: saline + alcohol) was 162 % of control and 215 % of control. In addition, the T/C runs as follows: (dose: 0.22 mg/kg/injection, schedule: Q04DX003 (ip), vehicle: saline + alcohol) 247 % of control; (dose: 0.3 mg/kg/injection, schedule: Q01DX001 (ip), vehicle: saline) 153 % of control; (dose: 0.3 mg/kg/injection, schedule: Q04DX003 (ip), vehicle: saline + alcohol) 182 % of control; (dose: 0.3 mg/kg/injection, schedule: Q04DX003 (ip), vehicle: saline) 175 % of control; (dose: 0.36 mg/kg/injection, schedule: Q04DX002 (ip), vehicle: saline + alcohol) 118 % of control and 176 % of control and 212 % of control; (dose: 0.36 mg/kg/injection, schedule: Q04DX003 (ip), vehicle: saline + alcohol) 99 % of control. The T/C is, setting by setting: (dose: 0.45 mg/kg/injection, schedule: Q01DX001 (ip), vehicle: saline) 164 % of control; (dose: 0.5 mg/kg/injection, schedule: Q04DX003 (ip), vehicle: saline + alcohol) 220 % of control; (dose: 0.6 mg/kg/injection, schedule: Q01DX001 (ip), vehicle: saline) 169 % of control; (dose: 0.6 mg/kg/injection, schedule: Q04DX002 (ip), vehicle: saline + alcohol) 101 % of control and 207 % of control and 254 % of control; (dose: 0.6 mg/kg/injection, schedule: Q04DX003 (ip), vehicle: saline) 86 % of control; (dose: 0.8 mg/kg/injection, schedule: Q01DX001 (ip), vehicle: water) 183 % of control. The T/C was 260 % of control and 274 % of control (dose: 1.0 mg/kg/injection, schedule: Q04DX002 (ip), vehicle: saline + alcohol); 55 % of control (dose: 1.2 mg/kg/injection, schedule: Q01DX001 (ip), vehicle: water); 150 % of control and 160 % of control and 175 % of control (dose: 3.0 micrograms/kg/injection, schedule: Q01DX009 (ip), vehicle: water); 164 % of control and 170 % of control and 188 % of control (dose: 6.0 micrograms/kg/injection, schedule: Q01DX009 (ip), vehicle: water); 207 % of control (dose: 6.25 micrograms/kg/injection, schedule: Q01DX005 (ip), vehicle: saline + alcohol); 150 % of control (dose: 6.25 micrograms/kg/injection, schedule: Q01DX009 (ip), vehicle: saline). In addition, the T/C by setting is: (dose: 6.5 micrograms/kg/injection, schedule: Q01DX009 (ip), vehicle: saline + alcohol) 155 % of control; (dose: 10.8 micrograms/kg/injection, schedule: Q01DX009 (ip), vehicle: saline + alcohol) 160 % of control; (dose: 12.5 micrograms/kg/injection, schedule: Q01DX005 (ip), vehicle: saline + alcohol) 207 % of control; (dose: 18.0 micrograms/kg/injection, schedule: Q01DX009 (ip), vehicle: saline + alcohol) 163 % of control; (dose: 25.0 micrograms/kg/injection, schedule: Q01DX005 (ip), vehicle: saline + alcohol) 245 % of control; (dose: 30.0 micrograms/kg/injection, schedule: Q01DX009 (ip), vehicle: saline + alcohol) 184 % of control. The T/C runs as follows: (dose: 50.0 micrograms/kg/injection, schedule: Q01DX005 (ip), vehicle: saline + alcohol) 176 % of control and 267 % of control; (dose: 64.8 micrograms/kg/injection, schedule: Q04DX003 (ip), vehicle: saline + alcohol) 156 % of control; (dose: 77.8 micrograms/kg/injection, schedule: Q04DX003 (ip), vehicle: saline + alcohol) 174 % of control; (dose: 83.3 micrograms/kg/injection, schedule: Q01DX009 (ip), vehicle: saline + alcohol) 98 % of control; (dose: 100.0 micrograms/kg/injection, schedule: Q01DX005 (ip), vehicle: saline + alcohol) 178 % of control; (dose: 130.0 micrograms/kg/injection, schedule: Q04DX003 (ip), vehicle: saline + alcohol) 175 % of control. The T/C (dose: 139.0 micrograms/kg/injection, schedule: Q01DX009 (ip), vehicle: saline + alcohol) was 96 % of control; the T/C (dose: 180.0 micrograms/kg/injection, schedule: Q04DX003 (ip), vehicle: saline + alcohol) was 190 % of control; the T/C (dose: 216.0 micrograms/kg/injection, schedule: Q04DX003 (ip), vehicle: saline + alcohol) was 192 % of control; the T/C (dose: 300.0 micrograms/kg/injection, schedule: Q04DX003 (ip), vehicle: saline + alcohol) was 162 % of control and 175 % of control; the T/C (dose: 360.0 micrograms/kg/injection, schedule: Q04DX003 (ip), vehicle: saline + alcohol) is 197 % of control; the T/C (dose: 500.0 micrograms/kg/injection, schedule: Q04DX003 (ip), vehicle: saline + alcohol) is 113 % of control and 219 % of control. The T/C (dose: 600.0 micrograms/kg/injection, schedule: Q04DX003 (ip), vehicle: saline + alcohol) is 101 % of control.
Regarding `COc1cccc(C(=O)OCCC(C)C)c1O`, the T/C was 110 % of control (dose: 50.0 mg/kg/injection, schedule: Q01DX009 (ip), vehicle: saline); 110 % of control and 92 % of control (dose: 100.0 mg/kg/injection, schedule: Q01DX009 (ip), vehicle: saline); 104 % of control and 117 % of control (dose: 200.0 mg/kg/injection, schedule: Q01DX009 (ip), vehicle: saline).
As to `CCOC(=O)Nc1cc(OC)cc2ccc(C)nc12`, the T/C was 88 % of control (dose: 12.5 mg/kg/injection, schedule: Q01DX009 (ip), vehicle: other); 98 % of control (dose: 50.0 mg/kg/injection, schedule: Q01DX009 (ip), vehicle: other); 99 % of control (dose: 100.0 mg/kg/injection, schedule: Q01DX009 (ip), vehicle: other); 98 % of control (dose: 200.0 mg/kg/injection, schedule: Q01DX009 (ip), vehicle: other).

These data come from PubChem BioAssay AID330 (DTP/NCI, 2004).
